# Reference: ChEMBL document CHEMBL1201862, “PubChem BioAssay data set” (2004)
# Activity calls are given as the source filed them.
# Assays:
# Insulin-degrading enzyme [1] = molecular target: T1, Insulin-degrading enzyme (Homo sapiens, UniProt P14735); experiment: activators of endogenous IDE in HEK cells, dose response, cell-based, fluorescence polarization (AID 588439); assay type: functional
# T1 sequence (P14735 whole entry): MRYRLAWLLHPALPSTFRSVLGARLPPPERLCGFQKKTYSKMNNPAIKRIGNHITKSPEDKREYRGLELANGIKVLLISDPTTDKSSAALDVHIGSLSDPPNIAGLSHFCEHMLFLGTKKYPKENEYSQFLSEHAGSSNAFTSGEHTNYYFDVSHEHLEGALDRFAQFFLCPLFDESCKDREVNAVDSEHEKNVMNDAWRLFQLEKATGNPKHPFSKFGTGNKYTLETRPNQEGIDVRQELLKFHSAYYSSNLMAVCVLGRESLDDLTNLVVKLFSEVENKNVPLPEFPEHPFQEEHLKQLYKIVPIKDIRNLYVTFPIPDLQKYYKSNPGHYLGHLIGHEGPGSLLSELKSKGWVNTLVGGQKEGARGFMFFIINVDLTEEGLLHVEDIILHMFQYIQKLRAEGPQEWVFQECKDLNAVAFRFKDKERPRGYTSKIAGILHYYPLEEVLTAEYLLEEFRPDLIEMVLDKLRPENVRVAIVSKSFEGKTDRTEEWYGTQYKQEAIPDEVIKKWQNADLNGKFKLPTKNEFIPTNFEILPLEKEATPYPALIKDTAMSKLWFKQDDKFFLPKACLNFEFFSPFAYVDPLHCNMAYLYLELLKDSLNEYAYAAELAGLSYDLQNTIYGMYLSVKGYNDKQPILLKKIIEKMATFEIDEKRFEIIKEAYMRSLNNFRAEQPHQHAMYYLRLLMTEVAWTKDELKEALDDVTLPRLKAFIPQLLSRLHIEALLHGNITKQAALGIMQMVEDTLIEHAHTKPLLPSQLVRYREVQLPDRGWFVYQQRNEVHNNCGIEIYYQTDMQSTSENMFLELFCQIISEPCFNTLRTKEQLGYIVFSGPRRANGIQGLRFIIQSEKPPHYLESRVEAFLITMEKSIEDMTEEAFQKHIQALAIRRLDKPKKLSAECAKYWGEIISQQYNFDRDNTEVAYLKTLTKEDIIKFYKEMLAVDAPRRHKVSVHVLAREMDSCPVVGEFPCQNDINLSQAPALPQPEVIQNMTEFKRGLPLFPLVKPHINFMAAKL
# HEK293 [2] = experiment: HEK cell cytotoxicity by LDH release, dose response, cytotoxicity control for IDE activator project, fluorescence, HEK cells (AID 588440); assay type: functional, cell-based; settings: Homo sapiens;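 also: cytotoxicity by LDH release measuring loss of membrane integrity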
# Insulin-degrading enzyme [3] = molecular target: T1, Insulin-degrading enzyme; experiment: activators of recombinant IDE enzyme, dose response, counter-screen for IDE activator project, biochemical, fluorescence polarization (AID 588681)
# HEK293 [4] = experiment: optical interference in Abeta FP readout, dose response, artefact control for IDE activator project, biochemical, fluorescence polarization (AID 588442); assay type: functional, cell-based; settings: Homo sapiens
# BJ [5] = experiment: cytotoxicity toward BJ-TERT-LT-ST fibroblasts, dose response, cell-based, RAS-independent, luminescence (AID 1935); assay type: functional; settings: Homo sapiens;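 also: BJ fibroblasts immortalized with TERT plus LT and ST oncogenes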
# [6] = cytotoxicity in HEK-293T NF-kB-Luc cells, dose response, cytotoxicity control for B/T-cell NF-kB inhibitor project, cell-based, uHTS hits (AID 489019); assay type: functional;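 also: IC50 reflects cytotoxicity as loss of cell viability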
# BJ [7] = experiment: cytotoxicity toward BJ-TERT fibroblasts, dose response, cell-based, RAS-independent, luminescence (AID 1933); assay type: functional; settings: Homo sapiens
# [8] = molecular target: Heat shock protein HSP 90-alpha (Homo sapiens, UniProt P07900); assay type: functional, organism-based
# [9] = molecular target: T2, Luciferin 4-monooxygenase (Photinus pyralis, UniProt P08659); experiment: firefly luciferase enzyme inhibitors, dose response, biochemical, dry powder samples, plate reader (AID 588451)
# T2 sequence (P08659 whole entry, the tested form may be a part): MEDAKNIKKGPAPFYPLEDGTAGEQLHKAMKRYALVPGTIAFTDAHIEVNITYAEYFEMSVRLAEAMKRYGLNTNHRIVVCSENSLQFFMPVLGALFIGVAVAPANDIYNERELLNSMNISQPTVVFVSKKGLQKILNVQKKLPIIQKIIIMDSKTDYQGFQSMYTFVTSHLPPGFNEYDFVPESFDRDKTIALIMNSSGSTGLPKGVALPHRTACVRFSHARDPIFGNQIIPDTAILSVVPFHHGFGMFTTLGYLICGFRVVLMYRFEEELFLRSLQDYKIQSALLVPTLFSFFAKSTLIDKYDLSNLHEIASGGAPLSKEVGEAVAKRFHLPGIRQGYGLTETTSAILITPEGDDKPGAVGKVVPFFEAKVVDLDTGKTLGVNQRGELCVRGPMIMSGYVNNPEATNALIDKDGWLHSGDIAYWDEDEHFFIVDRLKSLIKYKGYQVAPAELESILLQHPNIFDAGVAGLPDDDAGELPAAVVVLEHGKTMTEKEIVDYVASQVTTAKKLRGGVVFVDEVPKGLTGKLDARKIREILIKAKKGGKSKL
# [10] = off-target signal loss in HeLa-CEM21 co-culture – HeLa F-luc CTL cells, cherry-picked, counter-screen for HIV-1 Env fusion inhibitor project, dose response (AID 652040); assay type: functional, cell-based;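 also: potency for signal decrease marking cytotoxic or nonspecific inhibition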
# BJ [11] = experiment: cytotoxicity toward Ras-transformed BJeLR fibroblasts, dose response, cell-based, alamar blue fluorescence, cherrypicked samples (AID 2631); assay type: functional; settings: Homo sapiens;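 also: confirmatory dose-response assay in RAS-dependent BJ fibroblasts engineered with TERT, LT and ST, with cytotoxicity read by fluorescence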
# [12] = MC4R antagonists, dose response, counter-screen for LGR2 antagonist project, cell-based, plate reader, cherry pick (AID 743444); assay type: functional;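 also: transfected HEK 293 cells stimulated with alpha-MSH peptide; potency of inhibitors of the alpha-MSH evoked signal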
# [13] = molecular target: T2, Luciferin 4-monooxygenase; experiment: firefly luciferase enzyme inhibitors, dose response, biochemical, luminescence (AID 1891)
# [14] = HepG2 cell cytotoxicity, dose response, cytotoxicity control, plate reader, cherry-pick, antagonist series (AID 743416); assay type: functional, cell-based
# [15] = cytotoxicity toward DRD oncogenic fibroblasts, dose response, cell-based, non-viral oncogenic, luminescence (AID 1934); assay type: functional; settings: Homo sapiens
# BJ [16] = experiment: cells; assay type: functional, cell-based; settings: Homo sapiens
# [17] = HepG2 cell cytotoxicity, dose response, cytotoxicity control for Shn3 inhibitor project, CellTiter-Glo, cherry-picked (AID 624134); assay type: functional, cell-based
# INS1 = experiment: beta cell apoptosis inhibitors, cytokine rescue, dose response, luminescence, retest (AID 449756); assay type: functional, cell-based; settings: Rattus norvegicus;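 also: cell death triggered by IL-1 beta plus TNF-alpha plus IFN-gamma mixture; protective hits raise ATP signal compared with cytokine alone wells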
# H4 [18] = experiment: Amyloid Precursor 5' UTR neuroblastoma cell reporter line Measured in Cell-Based System Using Plate Reader - 2078-04_Inhibitor_Dose_DryPowder_Activity. [Related pubchem assays (depositor defined):AID488894]; assay type: functional; settings: Homo sapiens
# [19] = inhibitors of clade B AD8 Env fusion, dose response, cell-based, cherry-pick (AID 652062); assay type: functional;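 also: luciferase signal from cell-cell fusion driven by HIV-1 clade B AD8 Env; potency is for inhibitors of fusion seen as a drop in luminescence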
# [20] = Shn3 3'UTR reporter inhibitors, dose response, cell-based, Clone20 osteoblasts, firefly luciferase, cherry-picked (AID 624132); assay type: functional;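 also: firefly luciferase luminescence from reporter carrying the Shn3 3'UTR in osteoblasts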
# [21] = CEM21 lymphoblast cell cytotoxicity, dose response, cytotoxicity control for viral fusion inhibitor project, CellTiter-Glo luminescence, cherry-picked (AID 652042); assay type: functional, cell-based;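 also: potency for signal decrease meaning cytotoxicity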
# Jurkat = experiment: antigen receptor-induced NF-kB inhibitors, dose response, Jurkat, luciferase reporter, luminescence, B- and T-cell (AID 489004); assay type: functional, cell-based; settings: Homo sapiens;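 also: NF-kB luciferase reporter Jurkat cells stimulated with PMA plus ionomycin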
# H4 [22] = experiment: inhibitors of control reporter signal in H4 cells – cell-based, plate reader, dry powder samples, counter-screen for prion reporter project, dose response (AID 540255); assay type: functional; settings: Homo sapiens
# [23] = inhibitors of HIV Env-driven cell fusion, dose response, cherry-pick (AID 652057); assay type: functional, cell-based
# H4 [24] = experiment: Inhibitors of Prion Protein 5' UTR mRNA Measured in Cell-Based System Using Plate Reader - 2078-01_Inhibitor_Dose_DryPowder_Activity. [Related pubchem assays (depositor defined):AID488894]; assay type: functional; settings: Homo sapiens
# [25] = Luminescence Cell-Based Dose Confirmation HTS to Identify Inhibitors of Platelet Dense Granule Release. [Related pubchem assays: 1663 (Primary HTS), 1678 (Summary of Project)]; assay type: functional
# [26] = HEK293 cell cytotoxicity, dose response, cytotoxicity control, plate reader, cherry-picked samples (AID 743446); assay type: functional, cell-based
# [27] = A549 cell cytotoxicity, dose response, cytotoxicity control, plate reader, cherry-pick, antagonist series (AID 743412); assay type: functional, cell-based
# [28] = LGR2 antagonists, dose response, cell-based, HEK293, CRE-luciferase reporter, cherry pick, set 2 (AID 743343); assay type: functional;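 also: transfected cells were stimulated with diluted bursicon conditioned medium after compound addition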
# [29] = ZM109 Env clade C HIV-1 fusion inhibitors, dose response, HeLa effector, CEM target cells, luciferase, cherry-pick (AID 652058); assay type: functional, cell-based
# [30] = molecular target: T3, High affinity choline transporter 1 (Homo sapiens, UniProt Q9GZV3); experiment: CHT activators, dose response, cell-based, 10-point CRC, membrane potential dye (AID 602376); assay type: functional
# T3 sequence (Q9GZV3 whole entry): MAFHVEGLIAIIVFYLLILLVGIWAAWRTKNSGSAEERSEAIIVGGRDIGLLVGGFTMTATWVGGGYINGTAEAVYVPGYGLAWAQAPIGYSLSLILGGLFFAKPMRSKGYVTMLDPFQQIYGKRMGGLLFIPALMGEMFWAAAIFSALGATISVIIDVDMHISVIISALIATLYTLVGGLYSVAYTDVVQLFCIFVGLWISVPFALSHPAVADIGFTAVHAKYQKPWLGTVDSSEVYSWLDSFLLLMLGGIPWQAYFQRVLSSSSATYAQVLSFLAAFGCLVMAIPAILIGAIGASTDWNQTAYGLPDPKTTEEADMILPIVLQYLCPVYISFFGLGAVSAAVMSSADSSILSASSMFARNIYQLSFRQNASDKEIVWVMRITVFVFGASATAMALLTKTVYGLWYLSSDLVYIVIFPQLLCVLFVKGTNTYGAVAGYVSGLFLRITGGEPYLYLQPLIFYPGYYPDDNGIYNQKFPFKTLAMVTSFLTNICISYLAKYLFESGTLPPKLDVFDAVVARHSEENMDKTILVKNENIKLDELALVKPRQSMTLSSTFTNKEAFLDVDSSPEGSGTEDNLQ
# [31] = molecular target: Neuropeptides B/W receptor type 1 (Homo sapiens, UniProt P48145); experiment: GPR7 antagonist potency, late-stage follow-up, cell-based, fluorescence, dose response, set 6 (AID 588583); assay type: functional
# Chain of Neuropeptides B/W receptor type 1 (P48145 whole entry): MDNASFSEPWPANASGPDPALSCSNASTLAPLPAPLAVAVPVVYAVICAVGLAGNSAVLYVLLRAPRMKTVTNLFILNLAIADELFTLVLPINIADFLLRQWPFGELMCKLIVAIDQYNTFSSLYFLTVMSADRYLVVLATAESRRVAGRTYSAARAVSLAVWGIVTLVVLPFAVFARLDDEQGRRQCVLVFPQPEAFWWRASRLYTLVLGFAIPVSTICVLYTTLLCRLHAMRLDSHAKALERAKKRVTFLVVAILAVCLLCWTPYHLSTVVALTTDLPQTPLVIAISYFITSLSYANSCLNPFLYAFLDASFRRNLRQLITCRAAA
# [32] = molecular target: Melanin-concentrating hormone receptor 1 (Homo sapiens, UniProt Q99705); experiment: Late-stage fluorescence-based counterscreen for antagonists of the G-protein coupled receptor 7 (GPR7): cell-based dose response assay to identify antagonists of the melanin-concentrating hormone receptor 1 (MCHR1) Set 6.; assay type: functional
# Chain of Melanin-concentrating hormone receptor 1 (Q99705 whole entry): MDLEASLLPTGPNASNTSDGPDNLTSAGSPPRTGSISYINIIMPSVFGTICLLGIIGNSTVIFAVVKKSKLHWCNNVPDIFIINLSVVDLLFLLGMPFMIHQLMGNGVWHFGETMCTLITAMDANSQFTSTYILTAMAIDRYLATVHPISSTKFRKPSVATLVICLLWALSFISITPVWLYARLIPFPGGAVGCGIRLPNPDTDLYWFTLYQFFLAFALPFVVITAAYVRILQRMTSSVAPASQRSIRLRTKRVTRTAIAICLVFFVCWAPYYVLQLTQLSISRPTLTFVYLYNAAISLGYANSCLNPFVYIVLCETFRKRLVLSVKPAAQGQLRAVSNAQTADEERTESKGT
# Focal adhesion kinase 1 = Focal adhesion kinase 1 (Homo sapiens, UniProt Q05397); assay type: functional;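 also: measured as one member of a kinome panel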
# Aurora kinase B = Aurora kinase B (Homo sapiens, UniProt Q96GD4); assay type: functional
# Chain of Aurora kinase B (Q96GD4 whole entry): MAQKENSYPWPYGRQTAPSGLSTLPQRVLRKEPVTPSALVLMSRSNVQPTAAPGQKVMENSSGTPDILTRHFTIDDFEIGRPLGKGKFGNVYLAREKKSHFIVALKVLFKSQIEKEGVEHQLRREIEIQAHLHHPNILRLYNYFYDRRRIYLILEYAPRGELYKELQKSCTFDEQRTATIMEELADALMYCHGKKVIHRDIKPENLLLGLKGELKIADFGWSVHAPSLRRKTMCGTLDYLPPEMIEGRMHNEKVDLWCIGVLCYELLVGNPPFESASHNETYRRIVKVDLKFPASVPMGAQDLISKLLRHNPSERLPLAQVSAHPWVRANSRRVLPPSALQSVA
# Aurora kinase A = Aurora kinase A (Homo sapiens, UniProt O14965); assay type: functional;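 also: value from the Navigating the Kinome kinase panel profiling, panel entry STK6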
# Chain of Aurora kinase A (O14965 whole entry): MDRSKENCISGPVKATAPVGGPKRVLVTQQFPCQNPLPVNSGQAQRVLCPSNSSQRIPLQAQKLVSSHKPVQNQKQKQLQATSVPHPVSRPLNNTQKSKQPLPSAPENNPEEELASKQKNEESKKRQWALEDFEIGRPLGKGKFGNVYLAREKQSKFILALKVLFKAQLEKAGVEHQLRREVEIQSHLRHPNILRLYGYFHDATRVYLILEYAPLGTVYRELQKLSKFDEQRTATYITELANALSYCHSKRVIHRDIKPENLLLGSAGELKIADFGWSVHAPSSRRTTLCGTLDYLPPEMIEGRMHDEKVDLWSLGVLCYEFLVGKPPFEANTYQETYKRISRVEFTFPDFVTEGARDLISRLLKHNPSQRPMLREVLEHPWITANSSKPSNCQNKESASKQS
# [33] = molecular target: ALK tyrosine kinase receptor (Homo sapiens, UniProt Q9UM73); assay type: functional;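 also: ALK tested as one member of a kinase panel screen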
# Chain of ALK tyrosine kinase receptor (Q9UM73 whole entry): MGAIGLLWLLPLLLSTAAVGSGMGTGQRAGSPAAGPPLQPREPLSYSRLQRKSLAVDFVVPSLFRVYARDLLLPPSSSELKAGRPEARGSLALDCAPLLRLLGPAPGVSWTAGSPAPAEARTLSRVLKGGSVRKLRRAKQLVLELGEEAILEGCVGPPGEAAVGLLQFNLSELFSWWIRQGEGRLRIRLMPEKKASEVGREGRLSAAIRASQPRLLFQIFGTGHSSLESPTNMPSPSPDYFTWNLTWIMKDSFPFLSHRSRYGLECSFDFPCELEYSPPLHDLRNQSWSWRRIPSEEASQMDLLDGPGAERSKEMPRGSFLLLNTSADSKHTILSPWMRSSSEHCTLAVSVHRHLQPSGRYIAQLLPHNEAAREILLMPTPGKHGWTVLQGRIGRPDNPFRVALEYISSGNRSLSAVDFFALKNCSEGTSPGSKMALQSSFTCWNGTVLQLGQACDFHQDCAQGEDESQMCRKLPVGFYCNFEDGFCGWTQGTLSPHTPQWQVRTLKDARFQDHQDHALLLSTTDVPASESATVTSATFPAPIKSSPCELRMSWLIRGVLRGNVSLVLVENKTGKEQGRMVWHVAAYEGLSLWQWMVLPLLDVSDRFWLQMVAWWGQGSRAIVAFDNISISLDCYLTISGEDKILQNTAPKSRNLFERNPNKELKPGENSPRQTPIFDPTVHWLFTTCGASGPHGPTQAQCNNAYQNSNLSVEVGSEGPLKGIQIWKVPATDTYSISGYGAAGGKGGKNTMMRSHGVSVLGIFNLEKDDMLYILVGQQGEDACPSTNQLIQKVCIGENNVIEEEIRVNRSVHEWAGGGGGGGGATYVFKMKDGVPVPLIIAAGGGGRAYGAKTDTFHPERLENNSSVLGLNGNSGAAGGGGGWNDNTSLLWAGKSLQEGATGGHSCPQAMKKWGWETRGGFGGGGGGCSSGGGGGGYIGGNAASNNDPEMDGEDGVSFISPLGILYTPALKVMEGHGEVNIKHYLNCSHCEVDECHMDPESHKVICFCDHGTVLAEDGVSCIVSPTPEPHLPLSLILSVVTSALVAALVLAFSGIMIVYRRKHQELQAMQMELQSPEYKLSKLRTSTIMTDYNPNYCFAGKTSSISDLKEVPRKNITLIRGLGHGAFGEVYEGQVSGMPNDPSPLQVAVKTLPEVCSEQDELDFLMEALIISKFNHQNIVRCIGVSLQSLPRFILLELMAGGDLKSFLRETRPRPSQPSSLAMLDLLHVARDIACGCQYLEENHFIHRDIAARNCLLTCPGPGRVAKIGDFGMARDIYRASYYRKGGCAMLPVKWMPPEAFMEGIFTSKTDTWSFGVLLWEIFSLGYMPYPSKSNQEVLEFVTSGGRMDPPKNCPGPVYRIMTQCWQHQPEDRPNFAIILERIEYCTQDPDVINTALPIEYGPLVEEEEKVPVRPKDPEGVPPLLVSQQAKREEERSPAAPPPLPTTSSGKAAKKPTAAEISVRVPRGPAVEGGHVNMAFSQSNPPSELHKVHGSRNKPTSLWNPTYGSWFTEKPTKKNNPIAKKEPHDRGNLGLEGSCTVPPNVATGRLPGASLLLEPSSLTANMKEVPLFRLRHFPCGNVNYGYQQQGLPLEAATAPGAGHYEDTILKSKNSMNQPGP
# [34] = Luminescence Cell-Based Dose Response HTS to Identify Inhibitors of 5'UTR Stem-Loop Driven Prion Protein mRNA Translation in H4 Neuroglioblastoma Cells. [Related pubchem assays: 1827 (Project Summary), 1813 (Primary HTS)]; assay type: functional
# [35] = molecular target: Glycogen synthase kinase-3 beta (Homo sapiens, UniProt P49841); experiment: GSK3beta kinase inhibitors, dose response, biochemical, microfluidics, dry powder samples, set 2 (AID 623989); assay type: functional
# Chain of Glycogen synthase kinase-3 beta (P49841 whole entry): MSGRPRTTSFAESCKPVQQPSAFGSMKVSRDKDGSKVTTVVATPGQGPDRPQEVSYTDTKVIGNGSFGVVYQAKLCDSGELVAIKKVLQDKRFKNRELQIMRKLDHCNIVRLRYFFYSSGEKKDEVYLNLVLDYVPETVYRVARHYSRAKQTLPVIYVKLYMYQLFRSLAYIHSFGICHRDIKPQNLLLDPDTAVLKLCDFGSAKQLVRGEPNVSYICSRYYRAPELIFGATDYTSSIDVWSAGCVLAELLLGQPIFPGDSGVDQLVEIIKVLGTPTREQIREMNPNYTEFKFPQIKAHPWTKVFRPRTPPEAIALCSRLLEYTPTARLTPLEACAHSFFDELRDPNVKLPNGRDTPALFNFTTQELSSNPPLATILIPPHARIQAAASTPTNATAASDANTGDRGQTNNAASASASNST
# [36] = molecular target: Glycogen synthase kinase-3 alpha (Homo sapiens, UniProt P49840); experiment: human GSK3 alpha kinase inhibition, dose response, selectivity assay for GSK3beta inhibitor project, biochemical, microfluidics, dry powder samples, set 2 (AID 623978); assay type: functional
# Chain of Glycogen synthase kinase-3 alpha (P49840 whole entry): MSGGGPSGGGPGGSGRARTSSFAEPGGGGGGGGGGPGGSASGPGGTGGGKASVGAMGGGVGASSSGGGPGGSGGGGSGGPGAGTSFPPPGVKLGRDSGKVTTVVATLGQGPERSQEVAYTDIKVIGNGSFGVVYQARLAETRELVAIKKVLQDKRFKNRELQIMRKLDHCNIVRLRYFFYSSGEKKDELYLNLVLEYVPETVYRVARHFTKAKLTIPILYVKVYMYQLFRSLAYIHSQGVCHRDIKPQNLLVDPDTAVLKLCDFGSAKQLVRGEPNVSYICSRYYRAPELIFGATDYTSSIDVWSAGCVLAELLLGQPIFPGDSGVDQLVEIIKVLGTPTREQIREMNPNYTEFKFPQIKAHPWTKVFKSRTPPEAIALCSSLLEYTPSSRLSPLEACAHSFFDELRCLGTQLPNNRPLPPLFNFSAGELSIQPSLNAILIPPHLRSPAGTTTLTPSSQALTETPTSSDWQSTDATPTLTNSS
# [37] = inhibitors of firefly luciferase expression or activity, dose response, H4 neuroglioma cells, luminescence (AID 1990); assay type: functional, cell-based
# [38] = molecular target: Cyclin-dependent kinase 5/CDK5 activator 1 (Homo sapiens, UniProt Q00535); experiment: CDK5-p25 kinase inhibition, dose response, selectivity assay for GSK3beta inhibitor project, biochemical, microfluidic mobility shift, dry powder, set 2 (AID 623979); assay type: functional
# [39] = inhibitors of SNCA 5'UTR-driven reporter translation, confirmation, H4 neuroglioma cells, luminescence (AID 1988); assay type: functional, cell-based
# [40] = molecular target: DNA dC->dU-editing enzyme APOBEC-3G (Homo sapiens, UniProt Q9HC16); experiment: SAR analysis of small molecule inhibitors of APOBEC3G DNA Deaminase via a fluorescence-based single-stranded DNA deaminase assay - Set 2.; assay type: functional; settings: read-out: IC50_Mean
# Chain of DNA dC->dU-editing enzyme APOBEC-3G (Q9HC16 whole entry): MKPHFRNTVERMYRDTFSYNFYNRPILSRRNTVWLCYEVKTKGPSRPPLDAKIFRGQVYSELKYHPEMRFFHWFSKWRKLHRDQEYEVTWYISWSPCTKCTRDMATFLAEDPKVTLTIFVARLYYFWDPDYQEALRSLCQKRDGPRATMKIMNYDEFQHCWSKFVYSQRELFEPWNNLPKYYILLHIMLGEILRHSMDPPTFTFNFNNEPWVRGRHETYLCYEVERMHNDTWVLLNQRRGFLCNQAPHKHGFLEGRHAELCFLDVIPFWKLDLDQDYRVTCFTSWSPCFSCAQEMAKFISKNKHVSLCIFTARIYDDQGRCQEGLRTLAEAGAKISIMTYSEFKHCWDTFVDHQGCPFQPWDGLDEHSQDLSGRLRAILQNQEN
# [41] = molecular target: DNA dC->dU-editing enzyme APOBEC-3A (Homo sapiens, UniProt P31941); experiment: SAR analysis of small molecule inhibitors of APOBEC3A DNA Deaminase via a fluorescence-based single-stranded DNA deaminase assay - Set 2.; assay type: functional; settings: read-out: IC50_Mean
smiles,measurement,setting,value
O=C(COc1cccc2cccnc12)Nc1cccc(S(=O)(=O)N2CCCC2)c1,EC50,Insulin-degrading enzyme [1],> 54700 nM (inactive)
same,IC50,HEK293 [2],> 89200 nM (inactive)
same,EC50,Insulin-degrading enzyme [3],> 54700 nM (inactive)
same,EC50,HEK293 [4],> 55900 nM (inactive)
COc1cc(SC)ccc1C(=O)Nc1nc2ccccc2[nH]1,EC50,BJ [5],2260 nM (active)
same,IC50,[6],> 80000 nM (inactive)
same,EC50,BJ [7],1020 nM (active)
same,AC50,[8],1420 nM (active)
same,AC50,[9],9.03 nM (active)
same,AC50,[10],513 nM (active)
same,EC50,BJ [11],> 133000 nM (inactive)
same,AC50,[12],< 68 nM (active)
same,EC50,[13],152 nM (active)
same,AC50,[14],14500 nM (active)
same,EC50,[15],930 nM (active)
same,EC50,BJ [16],1260 nM (active)
same,AC50,[17],28500 nM (active)
same,AC50,INS1,1120 nM (active)
same,AC50,H4 [18],< 0.015 nM (active)
same,AC50,[19],319 nM (active)
same,AC50,[20],< 260 nM (active)
same,AC50,[21],1280 nM (active)
same,IC50,Jurkat,< 160 nM (active)
same,AC50,H4 [22],885 nM (active)
same,AC50,[23],260 nM (active)
same,AC50,H4 [24],28 nM (active)
same,EC50,[25],240 nM (active)
same,AC50,[26],3350 nM (active)
same,AC50,[27],2520 nM (active)
same,AC50,[28],< 68 nM (active)
same,AC50,[29],1980 nM (active)
O=C(c1cccc(C(F)(F)F)c1)C1CCCN(Cc2cccn2-c2ncccn2)C1 (stereo unspecified),EC50,[30],6690 nM (active)
COc1ccc(Oc2c(Cl)cnn(CC(=O)Nc3ccccc3-c3ccccc3)c2=O)cc1,IC50,[31],1140 nM (active)
same,IC50,[32],1140 nM (active)
Cc1cc(N2CCOCC2)cc2[nH]c(-c3c(NCC(O)c4ccccc4)cc[nH]c3=O)nc12 (stereo unspecified),Ki,Focal adhesion kinase 1,31.6 nM (active)
same,Ki,Aurora kinase B,50.1 nM (active)
same,Ki,Aurora kinase A,251 nM (active)
same,Ki,[33],79.4 nM (active)
CCOc1cccc(-c2c(C(=O)N/N=C/c3sccc3C)nnn2-c2nonc2N)c1,EC50,[34],15600 nM (active)
same,AC50,[35],197 nM (active)
same,AC50,[36],474 nM (active)
same,EC50,[37],> 120000 nM (not active)
same,AC50,[38],4070 nM (active)
same,EC50,[39],82200 nM (active)
Cc1ccc(-c2csc3nnc(SCCOc4ccccc4)n23)cc1,IC50,[40],> 99000 nM (inactive)
same,IC50,[41],> 99000 nM (inactive)
